The values that follow come from article PMC9569790, “From Solution Studies of Pharmaceuticals (Aspirin and Related Compounds) to the Thermodynamics of Aspirin-β-Cyclodextrin Interaction in water and N,N-Dimethylformamide” (International Journal of Molecular Sciences, 2022).

Data set [1] is described as follows: Conductance measurements in water. Particulars: for Ionic conductivity at infinite dilution of the anion, λA^−: from Λ^0m and λH^+ = 349.8. Type of data set: physicochemical.
Procedure: H^+ (aq) + A^− (aq) ⇌ HA (aq)(1)
The ion-pair formation constant for the process described by Equation (1) is expressed in terms of activities, a, as shown in Equation (2): (2) Kip=aHA/aH^+∗aA^−=HA∗γHA/H^+∗[A^−]∗γ±i^2
The conductivity cell constant was determined by the method of Jones and Bradshaw [39] as previously reported [24]. Conductance measurements were performed using the Wayne Kerr Autobalance Universal Bridge, type B642, and the Wayne Kerr Model 7330 Automatic LCR Meter Conductivity Bridge at a frequency of 1 Hz. […] Conductance readings at 298.15 K were recorded after each addition.
The nature of data set [2]: Transfer thermodynamic parameters from water to DMF. Type of data set: physicochemical. The note with it: 298.15 K. An excerpt: As mentioned earlier, ΔsH^0 is made by the contribution of the crystal lattice enthalpy and the solvation enthalpy. In order to remove the contribution of the crystal lattice process, it is a common practice to calculate the transfer thermodynamic parameters according to the following process: […]

The nature of data set [3]: Gibbs free energy and entropies of solution in water, corrected for ion-pair formation. The class given is physicochemical. Particulars: 298.15 K; for pKsp: corrected for ion-pair formation; for ΔsG^0, standard Gibbs energy of solution: standard state 1 mol dm^−3. An excerpt: In Equation (2), concentrations are in mol dm^−3, and γ ± i^2 is the mean molar ionic coefficient calculated by the use of the Debye–Hückel equation, where γHA is the activity coefficient of the un-ionized species. In very dilute solutions, γHA may be considered equal to unity. As far as the standard Gibbs energy of the solution in the standard state of 1 mol dm^−3, ∆sG^0, is concerned, the application of Equation (3) requires knowledge of the ion-pair formation constant in solution. The availability of Kip and solubilities in water allows the calculation the ionic molar concentration, ci, and the molar concentration of ion pairs, cip, as previously shown. The data refer to the standard state (1 mol dm^−3). ΔsG^0= −RTln (ci^2 * γ±i^2)(3)
In Equation (6), aH^+ and aA^− represent the activities of the species H^+ and A^− in solution respectively. The activity of the solid is unity by convention. The activity, a, on the molar scale (mol dm^−3) is related to the ionic molar concentration, ci, by the mean molar ionic activity coefficient, γ ± i.
Thus:K^0sp = ci^2 ∗ γ ± i^2 (7)
The availability of Gibbs energy (Equation (3)) and enthalpy values allows the calculation of the entropy of solution, ΔsS. For this purpose, the following equation was used.

Data set [4] can be described thus: Calorimetric enthalpies of solution in water. Type of data set: physicochemical. Particulars: 298.15 K; for ΔsH^0, standard enthalpy of solution: average of the ΔsH values. An excerpt: No measurements could be carried out at higher concentrations since the dissolution rate of this compound in water was relatively slow. […] Since there were no systematic changes in the ΔsH values with changes in the concentration of solute, the standard ΔsH^0 value reported in Table 3 is the average value. In the dissolution of a solute in water or any other solvent, there are two processes involved, as described in Equation (5):ΔsH^0 = ΔclH^0 + ΔsolvH^0(5)
(§1) The reliability of the calorimeter was checked by carrying out the standard reaction based on the protonation of an aqueous solution of tris-(hydroxymethyl)aminomethane (THAM) with an aqueous solution of hydrochloric acid (0.1 mol dm^−3) at 298.15 K (Equation (11)). H2NC(CH2OH)3(aq) + H3O+ (aq) → H3N+C(CH2OH)3(aq) + H2O(aq)(11)
(§2) The system was then placed in a water bath until thermal equilibrium was attained, after which the ampoule was broken into the solvent and the process was monitored by the chart recorder. The observed heat was corrected for the heat of the breaking of the empty ampoule in the solvent. The standard enthalpy of the solution, ∆sH^0, was found from […].

The conditions of data set [5]: water, same temperature, conductimetry; cited from earlier work.
The nature of data set [6]: Calorimetric enthalpies of solution in DMF. Type of data set: physicochemical. Particulars: 298.15 K; for ΔsH^0, standard enthalpy of solution: average of the ΔsH values.
From the text: All observed heats were corrected for the heat from breaking the empty ampoules in DMF (Q = −0.0518 J). Since there were no systematic changes in the ΔsH values with changes in the concentration of the solute, the reported standard ΔsH^0 values are the average values of the data reported in Table 5. This table also includes the standard deviations of the data.
as §1, §2

Data set [7] is described as follows: Solvate formation test in a solvent-saturated atmosphere. The class given is physicochemical. Particulars: water. How it is done:
(§3) The mixtures were left in a thermostatic bath at 298.15 K until equilibrium was reached. Aliquots of the saturated solutions were removed and analyzed gravimetrically by taking a known volume of sample, evaporating the solvent and then weighing the solid in a dry atmosphere. The weighing process was repeated until a constant weight was obtained. The analytical determination was carried out in triplicate on the same equilibrium mixture. Solvate formation was tested by storing the compounds over water or DMF in a desiccator containing an atmosphere saturated with the appropriate solvent over a period of at least four days.

A short description of data set [8]: Solubility measurements (gravimetric analysis of saturated solutions) in water. The class given is physicochemical. How it is done:
as §3

Molecules are shown by their SMILES. Read-outs that look alike come from different tables or passages of the source.

Regarding `CC(=O)Oc1ccccc1C(=O)O` [acetylsalicylate], in data set [1] (water, 298.15 K), the “Ionic conductivity at infinite dilution of the anion, λA^−” value was 42.2 S cm^2 mol^−1.

On to `CC(=O)c1ccc(O)c(C(=O)O)c1` [5-acetylsalicylate], for which the “Ionic conductivity at infinite dilution of the anion, λA^−” value in data set [1] (water, 298.15 K) is listed as 39.2 S cm^2 mol^−1.

As for `CC(=O)Oc1ccc(C(=O)O)cc1` [4-acetoxybenzoic acid], the “ΔtH^0, enthalpy of transfer” value in data set [2] was -3.85 kcal/mol. For the same compound, the “ΔsS^0, entropy of solution” value in data set [3] was −58 J K^−1 mol^−1. The same compound displayed a pKsp in data set [3] of 6.57. Moreover, in data set [3], the “ΔsG^0, standard Gibbs energy of solution” value was determined as 8.96 kcal/mol. In data set [1] (water, 298.15 K), the “Ka, dissociation constant” value is 4.55 × 10^−5. Also, the “Kip, ion-pair formation constant” value in data set [1] (water, 298.15 K) is recorded as 22 × 10^3. For the same compound, the “Λ^0m, molar conductance at infinite dilution” value in data set [1] (water, 298.15 K) amounted to 401 S cm^2 mol^−1. For the same compound, the pKa in data set [1] (water, 298.15 K, conductance, read-out: pKa) was 4.34. For the same compound, the “ΔsH^0, standard enthalpy of solution” value was 4.78 kcal/mol in data set [4], “ΔsH^0 = 20 ± 1 kJ mol^−1” in data set [4] (listed as 4-Acetoxybenzoic Acid) and 0.932 ± 0.024 kcal/mol in data set [6]. Further, the “ΔsH, enthalpy of solution” value came out at 4.52 kcal/mol in data set [4] (c = 4.51 × 10^−4 mol dm^−3); 4.381 kcal/mol in data set [4] (c = 4.57 × 10^−4 mol dm^−3); 4.84 kcal/mol in data set [4] (c = 4.66 × 10^−4 mol dm^−3); 4.902 kcal/mol in data set [4] (c = 4.90 × 10^−4 mol dm^−3); 4.928 kcal/mol in data set [4] (c = 6.17 × 10^−4 mol dm^−3); 5.017 kcal/mol in data set [4] (c = 6.75 × 10^−4 mol dm^−3). Further, the “ΔsH, enthalpy of solution” value in data set [6] (c = 1.03 × 10^−3 mol dm^−3) was found to be 0.93 kcal/mol; in data set [6] (c = 1.18 × 10^−3 mol dm^−3) it was 0.98 kcal/mol; in data set [6] (c = 1.26 × 10^−3 mol dm^−3), 0.949 kcal/mol; in data set [6] (c = 1.60 × 10^−3 mol dm^−3), 0.954 kcal/mol; in data set [6] (c = 1.82 × 10^−3 mol dm^−3) it was 0.908 kcal/mol. For the same compound, in data set [5], the “pKa (literature)” value was 4.38. Besides, the Solvate formation result in data set [7] is listed as “not detected”.

Consider `CC(=O)c1ccc(O)c(C(=O)O)c1` [5-acetylsalicylic acid], for which the “Solubility, S” value in data set [8] is “(3.46 ± 0.22) ∗ 10^−3 mol dm^−3”. The “ΔtH^0, enthalpy of transfer” value in data set [2] is -5.11 kcal/mol. In addition, the “ΔsS^0, entropy of solution” value in data set [3] is −15 J K^−1 mol^−1. The compound further registered a pKsp in data set [3] of 5.74. Also, the “ΔsG^0, standard Gibbs energy of solution” value in data set [3] worked out at 7.82 kcal/mol. In data set [1], this compound gave a pKa of 3.04. For the same compound, in data set [1] (water, 298.15 K), the “Ka, dissociation constant” value is 9.09 × 10^−4. Besides, the “Kip, ion-pair formation constant” value in data set [1] (water, 298.15 K) is reported as 11 × 10^2. Moreover, in data set [1] (water, 298.15 K), the “Λ^0m, molar conductance at infinite dilution” value was 389 S cm^2 mol^−1. Moreover, the “ΔsH^0, standard enthalpy of solution” value in data set [4] is 6.74 kcal/mol; in data set [4] (listed as 5-Acetylsalicylic Acid), “ΔsH^0 = 28.2 ± 0.3 kJ mol^−1”; in data set [6], 1.63 ± 0.048 kcal/mol. Also, the “ΔsH, enthalpy of solution” value in data set [4] (c = 2.58 × 10^−4 mol dm^−3) turned out to be 6.862 kcal/mol; in data set [4] (c = 2.66 × 10^−4 mol dm^−3), 6.795 kcal/mol; in data set [4] (c = 4.49 × 10^−4 mol dm^−3) it was 6.74 kcal/mol; in data set [4] (c = 6.67 × 10^−4 mol dm^−3), 6.663 kcal/mol; in data set [4] (c = 7.05 × 10^−4 mol dm^−3), 6.807 kcal/mol; in data set [4] (c = 8.05 × 10^−4 mol dm^−3), 6.673 kcal/mol. In addition, the “ΔsH, enthalpy of solution” value in data set [6] (c = 1.11 × 10^−3 mol dm^−3) was found to be 1.58 kcal/mol; in data set [6] (c = 1.45 × 10^−3 mol dm^−3) it was 1.59 kcal/mol; in data set [6] (c = 1.76 × 10^−3 mol dm^−3), 1.57 kcal/mol; in data set [6] (c = 2.07 × 10^−3 mol dm^−3), 1.59 kcal/mol; in data set [6] (c = 2.18 × 10^−3 mol dm^−3), 1.69 kcal/mol; in data set [6] (c = 2.38 × 10^−3 mol dm^−3) it was 1.66 kcal/mol. The Solvate formation result in data set [7] is reported as “not detected”.

The pKa is the pH at which an ionisable group is half protonated.
